Experimental data from paper PMC10940605, “Design, synthesis and in vitro anticancer activity of some new lomefloxacin derivatives” (Scientific Reports, 2024).

What was measured:
SW-620 = experiment: NCI-60 SRB screen; type: cell-based; details: Homo sapiens; SW-620, 10^–5 Molar; read-out: Percent growth inhibition
Experimental: (§1) All newly synthesized compounds were selected and screened for anticancer activity against 60 human cancer cell lines representing 9 types of tumors including leukemia, melanoma, lung, colon, CNS, ovarian, renal, prostate, and breast cancers at the National Cancer Institute (NCI), Bethesda, USA. Screening was performed utilizing a single dose (10^−5 M concentration) and cells were incubated for 48 h. The end point was determined using sulforhodamine B (SRB) dye.
(§2) In this study, all the 16 newly synthesized compounds were submitted to the National Cancer Institute (USA) for anticancer evaluation and were selected and evaluated using 60 different human tumor cell lines representing lung, colon, CNS, ovarian, renal, prostate, breast cancers as well as leukemia and melanoma. A single dose (10^–5 Molar) was used for the initial screening for evaluation of anticancer activity. The 60 human cancer cell lines were provided by the national cancer institute biomedical research campus in Frederick, Maryland.
(§3) 60 different human cancer cell lines were utilized to screen the newly synthesized compounds for anticancer activity according to the previously reported standard procedure[24]–[26] as follows: • 96 well microtiter plates were used to inoculate the cells at […] ranging from 4000–5000 cells/well depending on the replication time of individual cell lines. Roswell Park Memorial Institute culture medium (RPMI 1640 medium) containing 2 mM L-glutamine and fetal bovine serum was used to grow the cells at 37 °C, 5% CO2, 95% air and 100% relative humidity for 24 h. • Fixation of cells in two plates of each cell line in situ was done using trichloroacetic acid (TCA). This represented the measurement of cell population at the time of drug addition (Tz). • Dimethyl sulfoxide (DMSO) was used to dissolve the synthesized compounds at 400-fold the desired final maximum concentration and frozen prior to use. This frozen concentrate was melted and diluted to twice the final concentration with complete medium containing 50 µg/mL gentamycin at time of drug addition. • The final compound concentration was obtained by adding 100 µL of the synthesized compounds to the appropriate microtiter wells already containing 100 µL followed by incubation of the plates at 37 °C, 5% CO2, 95% air and 100% relative humidity for 48 h. • Fixation of the cells was achieved by gentle addition of 50 µL of cold 50% (w/v) TCA followed by incubation for 60 min at 4 °C. The supernatant was then discarded and the plates are washed 5 times with tap water and air dried. • Sulphorhodamine B (SRB) solution (100 µL) at 0.4% (w/v) in 1% acetic acid was added to each plate followed by incubation for 10 min at room temperature. The unbound dye was then removed by washing five times with 1% acetic acid and plates were air dried. • Dissolution of the bound stain was done using […] trizma base and the absorbance was read at […] wavelength using an automated plate reader. • The percentage growth inhibition was calculated as follows: Ti-Tz/C-Tz×100forconcentrationswhichTi≥Tz Ti-Tz/Tz×100forconcentrationswhichTi<Tz • Time zero (Tz) • Control growth (C) • Test growth in the presence of drug (Ti)

UO-31 = experiment: NCI-60 SRB screen; type: cell-based; details: Homo sapiens; UO-31, 10^–5 Molar; read-out: Percent growth inhibition
Experimental: as §1, §2, §3

SNB-75 = experiment: NCI-60 SRB screen; type: cell-based; details: Homo sapiens; SNB-75, 10^–5 Molar; read-out: Percent growth inhibition
Experimental: as §1, §2, §3

SF-268 = experiment: NCI-60 SRB screen; type: cell-based; details: Homo sapiens; SF-268, 10^–5 Molar; read-out: Percent growth inhibition
Experimental: as §1, §2, §3

LOX IMVI = experiment: NCI-60 SRB screen; type: cell-based; details: Homo sapiens, 10^–5 Molar, read-out: Percent growth inhibition
Experimental: as §1, §2, §3

MDA-MB-468 = experiment: NCI-60 SRB screen; type: cell-based; details: Homo sapiens; MDA-MB-468, 10^–5 Molar; read-out: Percent growth inhibition
Experimental: as §1, §2, §3

MDA-MB-231/ATCC = experiment: NCI-60 SRB screen; type: cell-based; details: Homo sapiens, 10^–5 Molar, read-out: Percent growth inhibition
Experimental: as §1, §2, §3

UACC-62 = experiment: NCI-60 SRB screen; type: cell-based; details: Homo sapiens; UACC-62, 10^–5 Molar; read-out: Percent growth inhibition
Experimental: as §1, §2, §3

leukemia SR = experiment: NCI-60 SRB screen; type: cell-based; details: Homo sapiens; SR, 10^–5 Molar; read-out: Percent growth inhibition
Experimental: as §1, §2, §3

NCI-H226 = experiment: NCI-60 SRB screen; type: cell-based; details: Homo sapiens; NCI-H226, 10^–5 Molar; read-out: Percent growth inhibition
Experimental: as §1, §2, §3

NCI-H322M = experiment: NCI-60 SRB screen; type: cell-based; details: Homo sapiens, 10^–5 Molar, read-out: Percent growth inhibition
Experimental: as §1, §2, §3

CAKI-1 = experiment: NCI-60 SRB screen; type: cell-based; details: Homo sapiens; CAKI-1, 10^–5 Molar; read-out: Percent growth inhibition
Experimental: as §1, §2, §3

786-0 = experiment: NCI-60 SRB screen; type: cell-based; details: Homo sapiens; 786-0, 10^–5 Molar; read-out: Percent growth inhibition
Experimental: as §1, §2, §3

[1] = test system: 60 human cancer cell lines; experiment: NCI-60 SRB screen, whole panel; type: cell-based; details: Homo sapiens, 48 h; One Dose Mean Graph, Conc 1.00E-5 Molar; read-out: Mean Growth Percent
HS 578T = experiment: NCI-60 SRB screen; type: cell-based; details: Homo sapiens, 10^–5 Molar, read-out: Percent growth inhibition
Experimental: as §1, §2, §3

SN12C = experiment: NCI-60 SRB screen; type: cell-based; details: Homo sapiens, 10^–5 Molar, read-out: Percent growth inhibition
Experimental: as §1, §2, §3

SF-539 = experiment: NCI-60 SRB screen; type: cell-based; details: Homo sapiens; SF-539, 10^–5 Molar; read-out: Percent growth inhibition
Experimental: as §1, §2, §3

SNB-19 = experiment: NCI-60 SRB screen; type: cell-based; details: Homo sapiens; SNB-19, 10^–5 Molar; read-out: Percent growth inhibition
Experimental: as §1, §2, §3

IGROV1 = experiment: NCI-60 SRB screen; type: cell-based; details: Homo sapiens, IGROV-1; IGROV1, 10^–5 Molar; read-out: Percent growth inhibition
Experimental: as §1, §2, §3

OVCAR-5 = experiment: NCI-60 SRB screen; type: cell-based; details: Homo sapiens; OVCAR-5, 10^–5 Molar; read-out: Percent growth inhibition
Experimental: as §1, §2, §3

melanoma SK-MEL-5 = experiment: NCI-60 SRB screen; type: cell-based; details: Homo sapiens; SK-MEL-5, 10^–5 Molar; read-out: Percent growth inhibition
Experimental: as §1, §2, §3

T-47D = experiment: NCI-60 SRB screen; type: cell-based; details: Homo sapiens, T47D, 10^–5 Molar, read-out: Percent growth inhibition
Experimental: as §1, §2, §3

RXF 393 = experiment: NCI-60 SRB screen; type: cell-based; details: Homo sapiens, 48 h; RXF 393, 10^–5 Molar; read-out: Percent growth inhibition
Experimental: as §1, §2, §3

MCF7 = experiment: NCI-60 SRB screen; type: cell-based; details: Homo sapiens; MCF7, 10^–5 Molar; read-out: Percent growth inhibition
Experimental: as §1, §2, §3

PC-3 = experiment: NCI-60 SRB screen; type: cell-based; details: Homo sapiens; PC-3, 10^–5 Molar; read-out: Percent growth inhibition
Experimental: as §1, §2, §3

HCT-15 = experiment: NCI-60 SRB screen; type: cell-based; details: Homo sapiens; HCT-15, 10^–5 Molar; read-out: Percent growth inhibition
Experimental: as §1, §2, §3

K-562 = experiment: NCI-60 SRB screen; type: cell-based; details: Homo sapiens, K562; K-562, 10^–5 Molar; read-out: Percent growth inhibition
Experimental: as §1, §2, §3

CCn1cc(C(=O)O)c(=O)c2cc(F)c(N3CCN(C=O)C(C)C3)c(F)c21 (stereo not shown) [Compound 6, 1-Ethyl-6,8-difluoro-7-(4-formyl-3-methylpiperazin-1-yl)-4-oxo-1,4-dihydroquinoline-3-carboxylic acid]
melting point: 289 to 291 °C
inhibition at 10 µM (SW-620): 3.48%
inhibition at 10 µM (UO-31): 12.9%
inhibition at 10 µM (SNB-75): 5.57%
inhibition at 10 µM (SF-268): 2.98%
inhibition at 10 µM (LOX IMVI): 6.49%
inhibition at 10 µM (MDA-MB-468): 2.93%
inhibition at 10 µM (MDA-MB-231/ATCC): 0.72%
inhibition at 10 µM (UACC-62): 7.29%
inhibition at 10 µM (leukemia SR): 27.8%
inhibition at 10 µM (NCI-H226): 4.91%
inhibition at 10 µM (NCI-H322M): 2.38%
inhibition at 10 µM (CAKI-1): 4.66%
inhibition at 10 µM (786-0): 1.77%
activity at 10 µM [1]: 103%

CCn1cc(C(=O)O)c(=O)c2cc(F)c(N3CCN(CC(=O)Nc4ccc(S(=O)(=O)Nc5nccc(C)n5)cc4)C(C)C3)c(F)c21 (stereo not shown) [Compound 5f, 1-Ethyl-6,8-difluoro-7-(3-methyl-4-(2-((4-(N-(4-methylpyrimidin-2-yl)sulfamoyl)phenyl)amino)-2-oxoethyl)piperazin-1-yl)-4-oxo-1,4-dihydroquinoline-3-carboxylic acid]
melting point: 247 to 249 °C
inhibition at 10 µM (HS 578T): 0.4%
inhibition at 10 µM (SW-620): 3.4%
inhibition at 10 µM (UO-31): 16.7%
inhibition at 10 µM (SN12C): 1.96%
inhibition at 10 µM (SNB-75): 4.26%
inhibition at 10 µM (SF-268): 1.74%
inhibition at 10 µM (LOX IMVI): 4.41%
inhibition at 10 µM (MDA-MB-468): 3.63%
inhibition at 10 µM (UACC-62): 5.79%
inhibition at 10 µM (SF-539): 0.79%
inhibition at 10 µM (SNB-19): 1.26%
inhibition at 10 µM (IGROV1): 0.3%
inhibition at 10 µM (NCI-H226): 2.92%
inhibition at 10 µM (OVCAR-5): 1.48%
inhibition at 10 µM (melanoma SK-MEL-5): 193%
inhibition at 10 µM (CAKI-1): 11.4%
inhibition at 10 µM (T-47D): 1.12%
inhibition at 10 µM (RXF 393): 0.98%
inhibition at 10 µM (MCF7): 3.33%
inhibition at 10 µM (PC-3): 2.04%
activity at 10 µM [1]: 102%

CCn1cc(C(=O)O)c(=O)c2cc(F)c(N3CCN(CC(=O)Nc4ccc(S(=O)(=O)Nc5ncccn5)cc4)C(C)C3)c(F)c21 (stereo not shown) [Compound 5e, 1-Ethyl-6,8-difluoro-7-(3-methyl-4-(2-oxo-2-((4-(N-(pyrimidin-2-yl)sulfamoyl)phenyl)amino)ethyl)piperazin-1-yl)-4-oxo-1,4-dihydroquinoline-3-carboxylic acid]
melting point: 282 to 284 °C
inhibition at 10 µM (HS 578T): 2.04%
inhibition at 10 µM (UO-31): 9.64%
inhibition at 10 µM (SN12C): 3.07%
inhibition at 10 µM (SNB-75): 6.39%
inhibition at 10 µM (SF-268): 1.55%
inhibition at 10 µM (UACC-62): 7.88%
inhibition at 10 µM (HCT-15): 2.43%
inhibition at 10 µM (CAKI-1): 7.59%
inhibition at 10 µM (K-562): 1.07%
inhibition at 10 µM (MCF7): 5.24%
activity at 10 µM [1]: 106%
